Assay results reported in US10597388B2, “Pyridazinone herbicides” (FMC CORPORATION, priority 2014, dated 2020).

Key:
Test in all cases: Test C greenhouse herbicide test, pre- and postemergence
Type in all cases: in vivo
[1] = system: pigweed (Amaranthus retroflexus)
Method in brief: (§1)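 Pre- and postemergence greenhouse screen; values are visual control ratings, 0 meaning no effect and 100 complete kill, assigned relative to untreated plants after 13 to 15 d.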

[2] = system: morningglory (Ipomoea coccinea)
Method in brief: as §1

[3] = system: lambsquarters (Chenopodium album)
Method in brief: as §1

[4] = system: blackgrass (Alopecurus myosuroides)
Method in brief: as §1

[5] = system: waterhemp (common waterhemp, Amaranthus rudis)
Method in brief: as §1

[6] = system: oilseed rape (Brassica napus)
Method in brief: as §1

[7] = system: johnsongrass (Sorghum halepense)
Method in brief: as §1

[8] = system: galium (catchweed bedstraw, Galium aparine)
Method in brief: as §1

[9] = system: nutsedge, yellow (yellow nutsedge, Cyperus esculentus); settings: Postemergence
Method in brief: as §1

soybean (Glycine max) = system: soybean (Glycine max)
Method in brief: as §1

corn (Zea mays) = system: corn (Zea mays)
Method in brief: as §1

[10] = system: wheat (winter wheat, Triticum aestivum)
Method in brief: as §1

[11] = system: foxtail, giant (giant foxtail, Setaria faberii)
Method in brief: as §1

[12] = system: crabgrass, large (large crabgrass, Digitaria sanguinalis)
Method in brief: as §1

[13] = system: velvetleaf (Abutilon theophrasti)
Method in brief: as §1

[14] = system: ryegrass, Italian (Italian ryegrass, Lolium multiflorum)
Method in brief: as §1

[15] = Postemergence, 31 g ai/ha, scale 0 to 100 (0 no effect, 100 complete control)
[16] = Postemergence, 125 g ai/ha, scale 0 to 100, 0 is no effect, 100 is complete control
[17] = Postemergence, 250 g ai/ha, scale 0 to 100, 0 no effect, 100 complete control, 13 to 15 d
[18] = postemergence, 62 g ai/ha, scale 0 to 100, 0 no effect, 100 complete control
[19] = Postemergence, 31 g ai/ha, 0 to 100 scale (0 no effect, 100 complete control)

`Cc1nn(C)c(=O)c(-c2cc(F)cc3ccccc23)c1OS(C)(=O)=O` [Compound 115] was tested, and the “Plant response rating, Pigweed” value [1, 15] was 30, the “Plant response rating, Pigweed” value [1, 16] was 70 and the “Plant response rating, Pigweed” value [1, 17] was 90. The “Plant response rating, Morningglory” value [2, 15] was 55, the “Plant response rating, Morningglory” value [2, 16] was 95 and the “Plant response rating, Morningglory” value [2, 17] was 100. The “Plant response rating, Lambsquarters” value [3, 15] was 70, the “Plant response rating, Lambsquarters” value [3, 16] was 90 and the “Plant response rating, Lambsquarters” value [3, 17] was 98. The “Plant response rating, Blackgrass” value [4, 15] was 0, the “Plant response rating, Blackgrass” value [4, 16] was 20 and the “Plant response rating, Blackgrass” value [4, 17] was 35. For the same compound, the “Blackgrass plant response rating” value [4, 18] was 10, the “Plant response rating, Waterhemp” value [5, 15] was 65 and the “Plant response rating, Waterhemp” value [5, 16] was 90. The “Plant response rating, Waterhemp” value [5, 17] was 90, the “Plant response rating, Oilseed Rape” value [6, 15] was 0 and the “Plant response rating, Oilseed Rape” value [6, 16] was 0. The “Plant response rating, Oilseed Rape” value [6, 17] was 0, the “Plant response rating, Johnsongrass” value [7, 15] was 5 and the “Plant response rating, Johnsongrass” value [7, 16] was 10. For the same compound, the “Plant response rating, Johnsongrass” value [7, 17] was 20, the “Plant response rating, Galium” value [8, 15] was 85 and the “Plant response rating, Galium” value [8, 16] was 95. The “Plant response rating, Galium” value [8, 17] was 95, the “Plant response rating, Nutsedge, Yellow” value ([9]; 31 g ai/ha, scale 0 to 100 (0 no effect, 100 complete control)) was 40 and the “Plant response rating, Nutsedge, Yellow” value ([9]; 125 g ai/ha, scale 0 to 100, 0 is no effect, 100 is complete control) was 65. For the same compound, the “Plant response rating, Nutsedge, Yellow” value ([9]; 250 g ai/ha, scale 0 to 100, 0 no effect, 100 complete control, 13 to 15 d) was 80, the “Plant response rating, Soybean” value (soybean (Glycine max); [15]) was 10 and the “Plant response rating, Soybean” value (soybean (Glycine max); [16]) was 20. The “Plant response rating, Soybean” value (soybean (Glycine max); [17]) was 65, the “Plant response rating, Corn” value (corn (Zea mays); [15]) was 5 and the “Plant response rating, Corn” value (corn (Zea mays); [16]) was 5. The “Plant response rating, Corn” value (corn (Zea mays); [17]) was 15, the “Corn plant response rating” value (corn (Zea mays); [18]) was 5 and the “Plant response rating, Wheat” value [10, 15] was 0. For the same compound, the “Plant response rating, Wheat” value [10, 16] was 0, the “Plant response rating, Wheat” value [10, 17] was 5 and the “Plant response rating, Foxtail, Giant” value [11, 15] was 5. The “Plant response rating, Foxtail, Giant” value [11, 16] was 20, the “Plant response rating, Foxtail, Giant” value [11, 17] was 35 and the “Plant response rating, Crabgrass, Large” value [12, 15] was 10. The “Plant response rating, Crabgrass, Large” value [12, 16] was 20, the “Plant response rating, Crabgrass, Large” value [12, 17] was 25 and the “Crabgrass, Large plant response rating” value [12, 18] was 20. The “Plant response rating, Velvetleaf” value [13, 15] was 15, the “Plant response rating, Velvetleaf” value [13, 16] was 70 and the “Plant response rating, Velvetleaf” value [13, 17] was 65. For the same compound, the “Plant response rating, Ryegrass, Italian” value [14, 15] was 90, the “Plant response rating, Ryegrass, Italian” value [14, 16] was 95 and the “Plant response rating, Ryegrass, Italian” value [14, 17] was 95.
For `CC(=O)Oc1c(C)nn(C)c(=O)c1-c1c(C)oc2c(C)cc(C)cc12` [Compound 16, 5-(acetyloxy)-2,6-dimethyl-4-(2,5,7-trimethyl-3-benzofuranyl)-3(2H)-pyridazinone], the “Pigweed plant response rating” value [1, 19] was 40, the “Plant response rating, Pigweed” value [1, 16] was 30 and the “Plant response rating, Pigweed” value [1, 17] was 50. For the same compound, the “Pigweed plant response rating” value [1, 18] was 30, the “Morningglory plant response rating” value [2, 19] was 45 and the “Plant response rating, Morningglory” value [2, 16] was 60. The “Plant response rating, Morningglory” value [2, 17] was 40, the “Morningglory plant response rating” value [2, 18] was 50 and the “Lambsquarters plant response rating” value [3, 19] was 10. For the same compound, the “Plant response rating, Lambsquarters” value [3, 16] was 40, the “Plant response rating, Lambsquarters” value [3, 17] was 20 and the “Lambsquarters plant response rating” value [3, 18] was 60. The “Blackgrass plant response rating” value [4, 19] was 0, the “Plant response rating, Blackgrass” value [4, 16] was 5 and the “Plant response rating, Blackgrass” value [4, 17] was 40. The “Blackgrass plant response rating” value [4, 18] was 5, the “Waterhemp plant response rating” value [5, 19] was 5 and the “Plant response rating, Waterhemp” value [5, 16] was 5. For the same compound, the “Plant response rating, Waterhemp” value [5, 17] was 5, the “Waterhemp plant response rating” value [5, 18] was 5 and the “Oilseed Rape plant response rating” value [6, 19] was 0. The “Plant response rating, Oilseed Rape” value [6, 16] was 10, the “Plant response rating, Oilseed Rape” value [6, 17] was 0 and the “Oilseed Rape plant response rating” value [6, 18] was 0. For the same compound, the “Johnsongrass plant response rating” value [7, 19] was 0, the “Plant response rating, Johnsongrass” value [7, 16] was 0 and the “Plant response rating, Johnsongrass” value [7, 17] was 5. The “Johnsongrass plant response rating” value [7, 18] was 0, the “Galium plant response rating” value [8, 19] was 60 and the “Plant response rating, Galium” value [8, 16] was 85. The “Plant response rating, Galium” value [8, 17] was 80, the “Galium plant response rating” value [8, 18] was 80 and the “Soybean plant response rating” value (soybean (Glycine max); [19]) was 0. The “Plant response rating, Soybean” value (soybean (Glycine max); [16]) was 0, the “Plant response rating, Soybean” value (soybean (Glycine max); [17]) was 0 and the “Soybean plant response rating” value (soybean (Glycine max); [18]) was 0. The “Corn plant response rating” value (corn (Zea mays); [19]) was 0, the “Plant response rating, Corn” value (corn (Zea mays); [16]) was 0 and the “Plant response rating, Corn” value (corn (Zea mays); [17]) was 0. For the same compound, the “Corn plant response rating” value (corn (Zea mays); [18]) was 0, the “Wheat plant response rating” value [10, 19] was 0 and the “Plant response rating, Wheat” value [10, 16] was 0. The “Plant response rating, Wheat” value [10, 17] was 0, the “Wheat plant response rating” value [10, 18] was 0 and the “Foxtail, Giant plant response rating” value [11, 19] was 55. The “Plant response rating, Foxtail, Giant” value [11, 16] was 70, the “Plant response rating, Foxtail, Giant” value [11, 17] was 80 and the “Foxtail, Giant plant response rating” value [11, 18] was 60. For the same compound, the “Crabgrass, Large plant response rating” value [12, 19] was 5, the “Plant response rating, Crabgrass, Large” value [12, 16] was 20 and the “Plant response rating, Crabgrass, Large” value [12, 17] was 30. For the same compound, the “Crabgrass, Large plant response rating” value [12, 18] was 20, the “Velvetleaf plant response rating” value [13, 19] was 5 and the “Plant response rating, Velvetleaf” value [13, 16] was 20. For the same compound, the “Plant response rating, Velvetleaf” value [13, 17] was 35, the “Velvetleaf plant response rating” value [13, 18] was 5 and the “Ryegrass, Italian plant response rating” value [14, 19] was 10. For the same compound, the “Plant response rating, Ryegrass, Italian” value [14, 16] was 60, the “Plant response rating, Ryegrass, Italian” value [14, 17] was 70 and the “Ryegrass, Italian plant response rating” value [14, 18] was 50.
For `CC(=O)Oc1c(C)nn(C)c(=O)c1-c1c(C)oc2ccc(C)cc12` [Compound 14, 5-(acetyloxy)-4-(2,5-dimethyl-3-benzofuranyl)-2,6-dimethyl-3(2H)-pyridazinone], the “Pigweed plant response rating” value [1, 19] was 55, the “Plant response rating, Pigweed” value [1, 16] was 70 and the “Plant response rating, Pigweed” value [1, 17] was 90. For the same compound, the “Pigweed plant response rating” value [1, 18] was 70, the “Morningglory plant response rating” value [2, 19] was 65 and the “Plant response rating, Morningglory” value [2, 16] was 100. The “Plant response rating, Morningglory” value [2, 17] was 100, the “Morningglory plant response rating” value [2, 18] was 85 and the “Lambsquarters plant response rating” value [3, 19] was 80. The “Plant response rating, Lambsquarters” value [3, 16] was 80, the “Plant response rating, Lambsquarters” value [3, 17] was 90 and the “Lambsquarters plant response rating” value [3, 18] was 80. For the same compound, the “Blackgrass plant response rating” value [4, 19] was 0, the “Plant response rating, Blackgrass” value [4, 16] was 5 and the “Plant response rating, Blackgrass” value [4, 17] was 20. The “Blackgrass plant response rating” value [4, 18] was 0, the “Waterhemp plant response rating” value [5, 19] was 5 and the “Plant response rating, Waterhemp” value [5, 16] was 50. The “Plant response rating, Waterhemp” value [5, 17] was 40, the “Waterhemp plant response rating” value [5, 18] was 10 and the “Oilseed Rape plant response rating” value [6, 19] was 0. The “Plant response rating, Oilseed Rape” value [6, 16] was 0, the “Plant response rating, Oilseed Rape” value [6, 17] was 0 and the “Oilseed Rape plant response rating” value [6, 18] was 0. For the same compound, the “Johnsongrass plant response rating” value [7, 19] was 0, the “Plant response rating, Johnsongrass” value [7, 16] was 0 and the “Plant response rating, Johnsongrass” value [7, 17] was 5. For the same compound, the “Johnsongrass plant response rating” value [7, 18] was 0, the “Galium plant response rating” value [8, 19] was 50 and the “Plant response rating, Galium” value [8, 16] was 80. For the same compound, the “Plant response rating, Galium” value [8, 17] was 90, the “Galium plant response rating” value [8, 18] was 55 and the “Soybean plant response rating” value (soybean (Glycine max); [19]) was 0. For the same compound, the “Plant response rating, Soybean” value (soybean (Glycine max); [16]) was 5, the “Plant response rating, Soybean” value (soybean (Glycine max); [17]) was 5 and the “Soybean plant response rating” value (soybean (Glycine max); [18]) was 0. For the same compound, the “Corn plant response rating” value (corn (Zea mays); [19]) was 0, the “Plant response rating, Corn” value (corn (Zea mays); [16]) was 0 and the “Plant response rating, Corn” value (corn (Zea mays); [17]) was 5. The “Corn plant response rating” value (corn (Zea mays); [18]) was 0, the “Wheat plant response rating” value [10, 19] was 0 and the “Plant response rating, Wheat” value [10, 16] was 5. The “Plant response rating, Wheat” value [10, 17] was 5, the “Wheat plant response rating” value [10, 18] was 0 and the “Foxtail, Giant plant response rating” value [11, 19] was 20. For the same compound, the “Plant response rating, Foxtail, Giant” value [11, 16] was 50, the “Plant response rating, Foxtail, Giant” value [11, 17] was 50 and the “Foxtail, Giant plant response rating” value [11, 18] was 45. For the same compound, the “Crabgrass, Large plant response rating” value [12, 19] was 5, the “Plant response rating, Crabgrass, Large” value [12, 16] was 30 and the “Plant response rating, Crabgrass, Large” value [12, 17] was 35. The “Crabgrass, Large plant response rating” value [12, 18] was 5, the “Velvetleaf plant response rating” value [13, 19] was 10 and the “Plant response rating, Velvetleaf” value [13, 16] was 40. The “Plant response rating, Velvetleaf” value [13, 17] was 40, the “Velvetleaf plant response rating” value [13, 18] was 20 and the “Ryegrass, Italian plant response rating” value [14, 19] was 40. For the same compound, the “Plant response rating, Ryegrass, Italian” value [14, 16] was 65, the “Plant response rating, Ryegrass, Italian” value [14, 17] was 85 and the “Ryegrass, Italian plant response rating” value [14, 18] was 60.
